Measurements: paper PMC11172478, “1,3,5-Triazine as Branching Connector for the Construction of Novel Antimicrobial Peptide Dendrimers: Synthesis and Biological Characterization” (International Journal of Molecular Sciences, 2024)
In brackets after ≈: the same amount, converted by molar mass. Where two headings read alike, the source gives them in different places. Starred links: 1 amine or outer side, 2 acyl side, 3 side chain; linkers in the order of their positions; H or OH if unused. Positions of bridges follow the written chain, without caps; N, C: chain ends. Non-standard residues stand in square brackets, D forms with d. Residues, ends and D or L forms follow the SMILES beside them. Chains are numbered I, II in the order given. *: point of attachment. X3 = CC(=O)NCCNc1nc(NCCNC(C)=O)nc(N([C@@H](CC(C)C)C(=O)[*:2])[*:1])n1; X4 = CC(=O)NCCNc1nc(NCCNC(C)=O)nc(Oc2ccc(C(=O)*)cc2)n1; X2 = CC[C@H](C)CCCCC(=O)*; Dab = NCC[C@H](N)C(=O)O

Experiments:
Type in all cases: cell-based
[1] = system: P. aeruginosa ATCC 27853; settings: ATCC 27853, 24 h
Method: (§1) The antimicrobial activity of the dendrimers was evaluated against E. coli ATCC 25922, P. aeruginosa ATCC 27853 and S. aureus ATCC 29213 strains. The MIC values were determined by the broth microdilution method. Briefly, the different strains were grown in Muller Hinton broth cation adjusted (MHBCA) medium overnight at 37 °C with shaking at 200 rpm. The bacterial cultures were then adjusted to OD625nm of 0.08–0.1, and 5 μL of each diluted suspension was added to 96-well plates previously filled with MHBCA and serially diluted peptides. Plates were incubated for 24 h at 37 °C. Finally, the MIC was determined macroscopically, based on the visual turbidity of the wells.

[2] = system: S. aureus ATCC 29213; settings: ATCC 29213, 24 h
Method: as §1

[3] = system: E. coli ATCC 25922; settings: ATCC 25922, 24 h
Method: as §1

[4] = system: E. coli 7987; assay: microbe, parasite or virus in culture; settings: Escherichia coli; MDR isolate E. coli 7987; read-out: MIC
Method: (§2) E. coli ATCC 25922, P. aeruginosa ATCC 27853, S. aureus ATCC 29213, P. aeruginosa 666 SJD (ciprofloxacin-resistant), P. aeruginosa P12, P13, P15, P16 and P17 (MDR isolates) and E. coli 7987, 5545, 8248, 13974, 7259 and 208691 (MDR isolates) from our own collection were included in the present study.
as §1

[5] = system: P. aeruginosa P13; assay: microbe, parasite or virus in culture
Method: as §2, §1

[6] = system: E. coli 208691; assay: microbe, parasite or virus in culture
Method: as §2, §1

[7] = system: P. aeruginosa P17; assay: microbe, parasite or virus in culture
Method: as §2, §1

[8] = system: P. aeruginosa P12; assay: microbe, parasite or virus in culture; settings: MDR isolate P. aeruginosa P12
Method: as §2, §1

[9] = system: P. aeruginosa P16; assay: microbe, parasite or virus in culture; settings: MDR isolate P. aeruginosa P16
Method: as §2, §1

[10] = system: P. aeruginosa P15; assay: microbe, parasite or virus in culture
Method: as §2, §1

[11] = system: E. coli 8248; assay: microbe, parasite or virus in culture; settings: Escherichia coli; MDR isolate E. coli 8248; read-out: MIC
Method: as §2, §1

[12] = system: E. coli 5545; assay: microbe, parasite or virus in culture; settings: Escherichia coli; MDR isolate E. coli 5545; read-out: MIC
Method: as §2, §1

[13] = system: E. coli 13974; assay: microbe, parasite or virus in culture; settings: Escherichia coli; MDR isolate E. coli 13974; read-out: MIC
Method: as §2, §1

[14] = system: E. coli 7259; assay: microbe, parasite or virus in culture; settings: Escherichia coli; MDR isolate E. coli 7259; read-out: MIC
Method: as §2, §1

[15] = Pseudomonas aeruginosa, read-out: MIC

Row | SMILES | MIC P. aeruginosa ATCC 27853 [1] [µg/mL] | MIC S. aureus ATCC 29213 [2] [µg/mL] | MIC E. coli ATCC 25922 [3] [µg/mL] | other results
1 | CC(=O)NCCNc1nc(NCCNC(C)=O)nc(Oc2ccc(C(=O)NCC(=O)N[C@@H](Cc3ccccc3)C(=O)N[C@@H](CC(C)C)C(N)=O)cc2)n1 [C, (Ac-EDA)2-TA-PHBA-GFL-NH2] | >64 | >64 | >64 | –
2 | O=C(O)c1cn(C2CC2)c2cc(N3CCNCC3)c(F)cc2c1=O [Ciprofloxacin, reference compound] | – | – | – | MIC [4]: 32 µg/mL (≈ 96.6 µM); MIC ([5]; Pseudomonas aeruginosa, P13): 128 µg/mL (≈ 386 µM); MIC ([6]; Escherichia coli, 208691): 256 µg/mL (≈ 773 µM); MIC ([7]; Pseudomonas aeruginosa, P17): 256 µg/mL (≈ 773 µM); MIC [8, 15]: 64 µg/mL (≈ 193 µM); MIC [9, 15]: 64 µg/mL (≈ 193 µM); MIC ([10]; Pseudomonas aeruginosa, P15): 256 µg/mL (≈ 773 µM); MIC [11]: 32 µg/mL (≈ 96.6 µM); MIC [12]: 64 µg/mL (≈ 193 µM); MIC [13]: 32 µg/mL (≈ 96.6 µM); MIC [14]: 32 µg/mL (≈ 96.6 µM)
3 | CC[C@H](C)CCCCC(=O)N[C@@H](CCN)C(=O)N[C@H](C(=O)N[C@@H](CCN)C(=O)N[C@H]1CCNC(=O)[C@H]([C@@H](C)O)NC(=O)[C@H](CCN)NC(=O)[C@H](CCN)NC(=O)[C@H](CC(C)C)NC(=O)[C@@H](CC(C)C)NC(=O)[C@H](CCN)NC1=O)[C@@H](C)O [Colistin, reference compound] (X2-[Dab]T[Dab][Dab][Dab][dL]L[Dab][Dab]T; lactam 4-C (inferred); N-terminus assumed) | – | – | – | MIC ([5]; MDR isolate P. aeruginosa P13): 32 µg/mL (≈ 27.4 µM); MIC ([6]; MDR isolate E. coli 208691): 0.5 µg/mL (≈ 0.428 µM); MIC ([7]; MDR isolate P. aeruginosa P17): >8 µg/mL; MIC [8]: 64 µg/mL (≈ 54.7 µM); MIC [9]: 16 µg/mL (≈ 13.7 µM); MIC ([10]; MDR isolate P. aeruginosa P15): >128 µg/mL
4 | CC(=O)NCCNc1nc(NCCNC(C)=O)nc(N[C@@H](CC(C)C)C(=O)N[C@@H](CCCCN)C(=O)N[C@@H](CC(C)C)C(=O)N[C@@H](CCCCN)C(=O)N[C@@H](CC(C)C)C(=O)N[C@@H](CCCCN)C(N)=O)n1 [E, (Ac-EDA)2-TA-(LK)3-NH2] (H-[X3]KLKLK-NH2) | >64 | >64 | >64 | –

More lines, main results first:

Row | MIC P. aeruginosa ATCC 27853 [1] [µg/mL] | MIC S. aureus ATCC 29213 [2] [µg/mL] | MIC E. coli ATCC 25922 [3] [µg/mL] | SMILES | other results
5 | >64 | >64 | >64 | CC(C)C[C@H](NC(=O)[C@H](CCCCN)NC(=O)[C@H](CC(C)C)NC(=O)[C@H](CCCCN)NC(=O)[C@@H](N)CC(C)C)C(=O)N[C@@H](CCCCN)C(N)=O [A, H-Leu-Lys-Leu-Lys-Leu-Lys-NH2] (H-LKLKLK-NH2) | –
6 | 32 (≈ 15.3 µM) | >64 | 64 (≈ 30.5 µM) | CC(C)C[C@H](NC(=O)[C@H](Cc1ccccc1)NC(=O)CNC(=O)c1ccc(Oc2nc(NCCNC(=O)[C@H](CCCCN)NC(=O)[C@H](CC(C)C)NC(=O)[C@H](CCCCN)NC(=O)[C@H](CC(C)C)NC(=O)[C@H](CCCCN)NC(=O)[C@@H](N)CC(C)C)nc(NCCNC(=O)[C@H](CCCCN)NC(=O)[C@H](CC(C)C)NC(=O)[C@H](CCCCN)NC(=O)[C@H](CC(C)C)NC(=O)[C@H](CCCCN)NC(=O)[C@@H](N)CC(C)C)n2)cc1)C(N)=O [B, H-[(LK)3-EDA]2-TA-PHBA-GFL-NH2] | –
7 | >64 | >64 | >64 | CC(=O)NCCNc1nc(NCCNC(C)=O)nc(Oc2ccc(C(=O)N[C@@H](CC(C)C)C(=O)N[C@@H](CCCCN)C(=O)N[C@@H](CC(C)C)C(=O)N[C@@H](CCCCN)C(=O)N[C@@H](CC(C)C)C(=O)N[C@@H](CCCCN)C(N)=O)cc2)n1 [D, (Ac-EDA)2-TA-PHBA-(LK)3-NH2] (X4-LKLKLK-NH2) | –
8 | >64 | 64 (≈ 27.6 µM) | 32 (≈ 13.8 µM) | CC(C)C[C@H](NC(=O)[C@H](CCCCN)NC(=O)[C@H](CC(C)C)NC(=O)[C@H](CCCCN)NC(=O)[C@H](CC(C)C)NC(=O)[C@H](CCCCNC(=O)[C@H](CCCCN)NC(=O)[C@H](CC(C)C)NC(=O)[C@H](CCCCN)NC(=O)[C@H](CC(C)C)NC(=O)[C@H](CCCCN)NC(=O)[C@@H](N)CC(C)C)NC(=O)[C@H](CCCCN)NC(=O)[C@H](CC(C)C)NC(=O)[C@H](CCCCN)NC(=O)[C@H](CC(C)C)NC(=O)[C@H](CCCCN)NC(=O)[C@@H](N)CC(C)C)C(=O)N[C@@H](CCCCN)C(N)=O [F, H-[(LK)3]2-K-(LK)3-NH2] (I: H-LKLKLKKLKLKLK-NH2 / II: H-LKLKLK; amide I:7-II:C) | –
9 | >64 | >64 | >64 | CC(C)C[C@H](NC(=O)[C@H](CCCCN)NC(=O)[C@H](CC(C)C)NC(=O)[C@H](CCCCN)NC(=O)[C@H](CC(C)C)NC(=O)[C@H](CCCCN)NC(=O)[C@H](CC(C)C)NC(=O)[C@H](CCCCN)NC(=O)[C@H](CC(C)C)NC(=O)[C@H](CCCCN)NC(=O)[C@H](CC(C)C)NC(=O)[C@H](CCCCN)NC(=O)[C@H](CC(C)C)NC(=O)[C@H](CCCCN)NC(=O)[C@H](CC(C)C)NC(=O)[C@H](CCCCN)NC(=O)[C@@H](N)CC(C)C)C(=O)N[C@@H](CCCCN)C(N)=O [G, H-(Leu-Lys)9-NH2] (H-LKLKLKLKLKLKLKLKLK-NH2) | –
